US12312346B2, “Pyridopyrimidine compounds and methods of their use” (Tufts Medical Center, Inc., priority 2018, dated 2025)

What was measured:
CDK6^−/− SVFs (KO-SVFs) = assay: Cell number, KO-SVFs; type: cell-based, mouse; settings: 6 days; GD 0.1-10 μM
Description: FIG. 7B is a bar graph showing the cell numbers of KO-SVFs treated with LEE (10 μM) or compound GD at 0.1, 0.5, 1.0, 5.0, and 10 μM for 6 days. Data shown are mean±S.D. (n=6); *P<0.05 vs its vehicle control, t-test.
HCl salt of 6-acetyl-5-methyl-2-((4-(piperazin-1-ylmethyl)thiazol-2-yl)amino)pyrido[2,3-d]pyrimidin-7(8H)-one (Compound GD) prepared in Example 1 was examined for its inhibitory activity in cancer cell lines and WT and CDK6^−/− mouse embryonic fibroblasts (MEFs) and stromal vascular fractions (SVFs). MEFs and SVFs are enriched with mesenchymal stem cells (MSC) and pre-adipocytes which can differentiate into a variety of cell types, including adipocytes.

[1] = tested on: human leukemia cell line HPBALL (with Notch1 mutations); assay: Cell cycle (PI staining, S-G2-M cells) and cell number, HPBALL; type: cell-based
Description: FIG. 1A is a series of charts showing representative cell cycle profiles of human leukemia cell line HPBALL (with Notch1 mutations) treated with a vehicle (V) (for ribociclib (LEE) or compound GD) or LEE or compound GD for 6 days at 1, 5, 10, and 20 μM.
FIG. 1B is a histogram summarizing the cell cycle distribution of the HPBALL cell line treated with compound GD, as described for FIG. 1A. Data shown are mean±S.D. (n=6); *P<0.05 vs its vehicle controls, t-test.
FIG. 1C is a histogram summarizing the cell cycle distribution of the HPBALL cell line treated with ribociclib (LEE), as described for FIG. 1A. Data shown are mean±S.D. (n=6); *P<0.05 vs its vehicle controls, t-test.
FIG. 1D is a chart the percentage of S-G2-M cells in FIGS. 1B and 1C. IC50 is the concentration of an inhibitor where the response (here is the inhibition of proliferation) is reduced by half.
FIG. 1E is a bar graph summarizing the cell numbers of HPBALL cells treated with either GD with different doses or LEE (20 μM) for 6 days. Data shown are mean±S.D. (n=6); *P<0.05 vs vehicles (0) control, t-test.
HCl salt of 6-acetyl-5-methyl-2-((4-(piperazin-1-ylmethyl)thiazol-2-yl)amino)pyrido[2,3-d]pyrimidin-7(8H)-one (Compound GD) prepared in Example 1 was examined for its inhibitory activity in cancer cell lines and WT and CDK6^−/− mouse embryonic fibroblasts (MEFs) and stromal vascular fractions (SVFs). […]
(§1) Table 2: Experimental Procedures: sensitivity to CDK6 kinase activity inhibition was tested by incubating different cell lines in the presence of CDK6 inhibitor GD007/PBS for either 24 hours for detecting the status of pRB-780 phosphorylation, or 5 days for determining the effect of GD007 on cell proliferation. (1) By immunoblotting (WB), we will detect phospho-pRB-S^780, one of the substrates of CDK6 kinase; (2) By using FACS analysis, we will stain treated cells with Propidium Iodide (PI), a commonly used fluorescent intercalator, to measure the subpopulation of cell cycle to reveal any impact of CDK6 inhibition on cell proliferation; (3) cell numbers will be counted using hemocytometer.

[2] = tested on: differentiated SVF cells (white adipocyte formation); assay: Oil Red O staining of differentiated SVF cells with WAT inducers; type: cell-based; settings: vs vehicle
Description: FIG. 8A is an image of Oil Red O staining of differentiated SVF cells treated with a vehicle or compound GD (5 μM) in the presence of white adipose tissue (WAT) inducers. Scale bar: 100 μM
FIG. 8C is an image of Oil Red O staining of differentiated SVF cells treated with a vehicle or compound GD (0.1 μM) in the presence of white adipose tissue (WAT) inducers. Scale bar: 400 μM for the top 2 images, and 100 μM for the bottom two images.
Beige cells are associated with protection against obesity and metabolic syndrome (WO 2017/161253). Accordingly, compound GD and related compounds of the invention can be used for treating obesity and related metabolic diseases.

[3] = tested on: phosphorylated pRB at SER-780 in U251 cells; assay: Immunoblot of phosphorylated pRB (SER-780), U251; type: cell-based
Description: FIG. 5B is an image of a representative immunoblot showing the levels of phosphorylated pRB at SER-780 in U251 cells following treatment of these cells with a vehicle, PD, or compound GD for 24 hours. Tubulin was used as loading control.
as §1

## CC(=O)c1c(C)c2cnc(Nc3nc(CN4CCNCC4)cs3)nc2[nH]c1=O [Compound GD, 6-acetyl-5-methyl-2-((4-(piperazin-1-ylmethyl)thiazol-2-yl)amino)pyrido[2,3-d]pyrimidin-7(8H)-one]
CDK6^−/− SVFs (KO-SVFs)
  proliferation of CDK6−/− SVFs: little effect
[1]; Homo sapiens, 144 h, HPBALL, 6 days, read-out: IC50 (inhibition of proliferation, percentage of S-G2-M cells)
  IC50: ~4 µM
[1]; Leukemic cells: HPBALL, PI Staining, and cell number counting
  Compound GD Efficacy: Efficacious
[2]; GD 0.1 μM, FIG. 8C
  white adipocyte formation: inhibited white adipocyte formation
[2]; GD 5 μM, FIG. 8A
  white adipocyte formation: inhibited white adipocyte formation
[3]; Brain Tumor: U251, WB: P-RB-780
  Compound GD Efficacy: Efficacious
[3]; glioblastoma cell line U251, 24 hours
  pRB phosphorylation: inhibits pRB phosphorylation
